We go through five molecules from patent publication US5444085A, “Methods of inhibiting HIV and inhibiting the activation of HIV” (Warner-Lambert Company, priority 1994, dated 1995).

For test [1], the system named is OM-10.1 cells (HIV-1 activation). Conditions: poster Nov. 3-7 1991; cited from earlier work.
The test system of test [2] is HIV-infected cells. As to conditions: Hamamoto et al. 1989; cited from earlier work.
Test [3] concerns OM-10.1 cells (HIV-1 activation). Put plainly: Supernatant reverse transcriptase activity / HIV-1 activation in OM-10.1 cultures pretreated with test compound then TNF-α induced (Example 1). Format: cell-based. As to conditions: for stimulation index (SI) value of the reverse transcriptase activity: TNF-α treated vs non-TNF-α medium culture. The text has this:
The cellular pathways involved in mediating the activating signal from the plasma membrane to the integrated virus, resulting in HIV-1 expression, are much less clear. Recently, the development of a reliable and simple system for evaluating compounds that could prevent activation of latent HIV was reported at the National […] (NCDDG)/AIDS by P. Feorino, S. T. Butera, T. M. Folks, and R. F. Schinazi, San Diego, Calif., Nov. 3-7, 1991. […] The expression of CD4+ on the cell surface and the activity of reverse transcriptase are used as markers for quantitating viral expression. Alternatively, other HIV markers, such as protease activity, which are known to those of skill in the art can be used. OM-10.1 cells remain CD4^+ until viral activation and respond to tumor necrosis factor induction, and therefore, these cultures are used to conveniently and rapidly examine pharmacologics for an ability to prevent CD4^+ down modulation (decrease in expression of CD4^+ on the cell surface) and HIV-1 expression.
Example 1 was performed as described by Butera ST, et al., J. Virol. 1991;65:4645-4653. Test compounds were first dissolved in 100% DMSO to the indicated stock concentrations below in Table I. The stock solution was then diluted in tissue culture starting at 1:100(10/-2) and proceeding on as indicated.
OM-10.1 cells were then pretreated for 4 hours with the test compounds prior to TNF-α induction. TNF-α was added at 20 U/ml and induced cells were examined at 24 hours for evidence of surface CD4 down-modulation, as an indication of viral activation. Cells were also harvested after 24 hours of TNF-α induction for drug toxicity, being labeled with ^3 H thymidine during the final 18 hours in culture. At […], cell-free culture supernatant was collected for reverse transcriptase determination, as a further verification of the extent of HIV-1 activation. CD4 surface staining for flow cytometry and reverse transcriptase analysis were performed as described.

In test [4] the test system is OM-10.1 cells. Put plainly: Return to latency of TNF-α pre-activated OM-10.1 cells, percent CD4-positive cells by flow cytometry (Example 2). Type of test: cell-based. The method, then:
Moreover, in Example 2 the experiment was extended through 96 hours after the removal of TNF-α.
Background: Flow cytometry measures light scatter and fluorescence of single cells or particles in a stream.

In general, inhibition refers to the percentage by which the read-out fell short of the control.

With `Cc1cn([C@H]2C[C@H](F)[C@@H](CO)O2)c(=O)[nH]c1=O` [3'-fluoro-3'-deoxythymidine (FLT), 3'-fluoro-3'-deoxythymidine], the “inhibition of the activation of HIV-1” value in test [1] is reported as “modest inhibitors of the activation of HIV-1”.

Regarding `CCCCCCCCCCCCCC(=O)O[C@@H]1[C@@H](C)[C@@]2(O)[C@@H](C=C(CO)C[C@]3(O)C(=O)C(C)=C[C@@H]23)[C@@H]2C(C)(C)[C@]12OC(C)=O` [12-O-tetradecanoyl-phorbol-13-acetate], the “CD4 down regulation and viral expression” value in test [2] is “mediates CD4 down regulation and viral expression in HIV-infected cells”.

As for `COc1ccc2c(c1)c(OC(C)C)c(C(N)=O)[s+]2[O-]` (stereo not drawn) [Test Compound B, 5-methoxy-3-(1-methylethoxy)benzothiophene-2-carboxamide-, 1-oxide], the inhibition at 0.035 µM in test [3] (Human immunodeficiency virus 1, dilution 1:10 6 (A 19.5 nM; B 35.0 nM), TNF-α 20 U/ml, read-out: percent inhibition of the reverse transcriptase activity) was 0%. Besides, in test [3] (Human immunodeficiency virus 1, dilution 1:2000 (A 10.0 μM; B 17.75 μM), TNF-α 20 U/ml, read-out: percent inhibition of the reverse transcriptase activity), the inhibition at 17.75 µM stood at 72.9%. Besides, the inhibition at 8.88 µM in test [3] (Human immunodeficiency virus 1, dilution 1:4000 (A 5.0 μM; B 8.88 μM), TNF-α 20 U/ml, read-out: percent inhibition of the reverse transcriptase activity) was found to be 44%. The inhibition at 4.44 µM in test [3] (Human immunodeficiency virus 1, dilution 1:8000 (A 2.5 μM; B 4.44 μM), TNF-α 20 U/ml, read-out: percent inhibition of the reverse transcriptase activity) amounted to 26.4%. Besides, in test [3] (Human immunodeficiency virus 1, dilution 1:16,000 (A 1.25 μM; B 2.22 μM), TNF-α 20 U/ml, read-out: percent inhibition of the reverse transcriptase activity), the inhibition at 2.22 µM worked out at 18.2%. In addition, in test [3] (Human immunodeficiency virus 1, dilution 1:32,000 (A 0.62 μM; B 1.11 μM), TNF-α 20 U/ml, read-out: percent inhibition of the reverse transcriptase activity), the inhibition at 1.11 µM came out at 19.6%. In addition, in test [3] (Human immunodeficiency virus 1, dilution 1:64,000 (A 0.31 μM; B 0.55 μM), TNF-α 20 U/ml, read-out: percent inhibition of the reverse transcriptase activity), the inhibition at 0.55 µM came to 0.68%. The inhibition at 0.28 µM in test [3] (Human immunodeficiency virus 1, dilution 1:128,000 (A 0.16 μM; B 0.28 μM), TNF-α 20 U/ml, read-out: percent inhibition of the reverse transcriptase activity) stood at 3.67%. Moreover, in test [3] (Human immunodeficiency virus 1, dilution 1:256,000 (A 78.0 nM; B 0.14 μM), TNF-α 20 U/ml, read-out: percent inhibition of the reverse transcriptase activity), the inhibition at 0.14 µM amounted to 11.5%. The inhibition at 0.07 µM in test [3] (Human immunodeficiency virus 1, dilution 1:512,000 (A 39.0 nM; B 70.0 nM), TNF-α 20 U/ml, read-out: percent inhibition of the reverse transcriptase activity) stood at 1.55%. Further, in test [3] (TNF-α induced), the “anti-induction activity in the OM-10.1 cell system” value is “appeared to have anti-induction activity”. In test [3] (concentrations between 10 and 1 μM), the “inhibition of HIV-1 activation” value is “effective at substantially inhibiting HIV-1 activation”. The “mean reverse transcriptase cpm values” in test [3] (dilution 1:10 6 (A 19.5 nM; B 35.0 nM), TNF-α 20 U/ml) was 30,025 cpm; in test [3] (dilution 1:2000 (A 10.0 μM; B 17.75 μM), TNF-α 20 U/ml), 7,725 cpm; in test [3] (dilution 1:4000 (A 5.0 μM; B 8.88 μM), TNF-α 20 U/ml) it was 15,984 cpm; in test [3] (dilution 1:8000 (A […]; B 4.44 μM), TNF-α 20 U/ml), 21,009 cpm; in test [3] (dilution 1:16,000 (A 1.25 μM; B 2.22 μM), TNF-α 20 U/ml) it was 23,336 cpm; in test [3] (dilution 1:32,000 (A 0.62 μM; B 1.11 μM), TNF-α 20 U/ml), 22,931 cpm. For the same molecule, the “mean reverse transcriptase cpm values” in test [3] (dilution 1:64,000 (A 0.31 μM; B 0.55 μM), TNF-α 20 U/ml) was 28,334 cpm; in test [3] (dilution 1:128,000 (A 0.16 μM; B 0.28 μM), TNF-α 20 U/ml), 27,480 cpm; in test [3] (dilution 1:256,000 (A 78.0 nM; B 0.14 μM), TNF-α 20 U/ml), 25,257 cpm; in test [3] (dilution 1:512,000 (A 39.0 nM; B 70.0 nM), TNF-α 20 U/ml), 28,085 cpm. In addition, the “stimulation index (SI) value of the reverse transcriptase activity” value is on record as 8.28 in test [3] (dilution 1:10 6 (A 19.5 nM; B 35.0 nM)); 2.13 in test [3] (dilution 1:2000 (A 10.0 μM; B 17.75 μM)); 4.41 in test [3] (dilution 1:4000 (A 5.0 μM; B 8.88 μM)); 5.80 in test [3] (dilution 1:8000 (A […]; B 4.44 μM)); 6.44 in test [3] (dilution 1:16,000 (A 1.25 μM; B 2.22 μM)); 6.33 in test [3] (dilution 1:32,000 (A 0.62 μM; B 1.11 μM)). The “stimulation index (SI) value of the reverse transcriptase activity” value in test [3] (dilution 1:64,000 (A 0.31 μM; B 0.55 μM)) is listed as 7.82; in test [3] (dilution 1:128,000 (A 0.16 μM; B 0.28 μM)) it was 7.58; in test [3] (dilution 1:256,000 (A 78.0 nM; B 0.14 μM)), 6.97; in test [3] (dilution 1:512,000 (A 39.0 nM; B 70.0 nM)), 7.75. Moreover, the “percent CD4-positive cells” value in test [4] (0.5 μM, 24 hours) was 5.3%; in test [4] (0.5 μM, 48 hours) it was 20.6%; in test [4] (0.5 μM, 72 hours), 47.9%; in test [4] (0.5 μM, 96 hours), 75.1%; in test [4] (0.5 μM, T-0 (after 24 hours TNF-α, before compound)), 4.0%; in test [4] (0.5 μM, T-24 (baseline, before TNF-α and compound)), 89.0%. Besides, the “percent CD4-positive cells” value is recorded as 33.5% in test [4] (10 μM, 24 hours); 96.5% in test [4] (10 μM, 48 hours); 97.6% in test [4] (10 μM, 72 hours); 98.7% in test [4] (10 μM, 96 hours); 4.0% in test [4] (10 μM, T-0 (after 24 hours TNF-α, before compound)); 89.0% in test [4] (10 μM, T-24 (baseline, before TNF-α and compound)).

`CC(=O)N(O)CCCCCNC(=O)CCC(=O)N(O)CCCCCNC(=O)CCC(=O)N(O)CCCCCN` [desferrioxamine]: in test [1], the “inhibition of the activation of HIV-1” value was “modest inhibitors of the activation of HIV-1”.

B1: interferon Y: interferon Y (protein, UniProt P01579 24-161, looked up)
Interferon gamma: QDPYVKEAENLKKYFNAGHSDVADNGTLFLGILKNWKEESDRKIMQSQIVSFYFKLFKNFKDDQSIQKSVETIKEDMNVKFFNSNKKKRDDFEKLTNYSVTDLNVQRKAIHELIQVMAELSPAAKTGKRKRSQMLFRG
As for B1, in test [1], the “inhibition of the activation of HIV-1” value was “modest inhibitors of the activation of HIV-1”.
